Among the data in US9834549B2, “3,3-disubstituted-(8-aza-bicyclo[3.2.1]OCT-8-yl)-[5-(1H-pyrazol-4-yl)-thiophen-3-yl]-methanones as inhibitors of 11 (β)-HSD1” (The University Of Edinburgh, priority 2010, dated 2017) are IC50 values, retold here.

The target in this experiment is T1, human 11β-HSD1 (Homo sapiens, UniProt P28845).
T1 construct: stably transfected with a construct containing the full-length gene coding for the human 11β-HSD1 enzyme; expressed in transfected cells; host or cells: HEK293 (stably transfected, HEK293/11β-HSD1)
T1 sequence (P28845 whole entry): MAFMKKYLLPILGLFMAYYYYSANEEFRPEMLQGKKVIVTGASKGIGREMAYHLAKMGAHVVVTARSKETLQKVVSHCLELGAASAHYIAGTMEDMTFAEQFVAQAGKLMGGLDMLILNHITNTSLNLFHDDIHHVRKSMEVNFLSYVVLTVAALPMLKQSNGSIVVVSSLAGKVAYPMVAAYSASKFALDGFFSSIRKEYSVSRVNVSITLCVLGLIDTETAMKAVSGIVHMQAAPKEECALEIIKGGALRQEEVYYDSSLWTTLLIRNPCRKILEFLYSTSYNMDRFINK
Nature of the experiment: Cellular in vitro 11β-HSD1 enzyme inhibition assay (SPA, HEK293/11β-HSD1 cells). The format is cell-based. As to the method:
Compounds were assessed by a Scintillation Proximity Assay (SPA) performed according to the following protocol:
HEK293 cells were stably transfected with a construct containing the full-length gene coding for the human 11β-HSD1 enzyme to create HEK293/11β-HSD1 cells. Cells were routinely cultured in DMEM containing 10% calf foetal serum, 1% glutamine, and 1% penicillin and streptomycin. Prior to assay, cells were plated at 2×10^4 cells/well in 96-well poly-D-Lys coated flat-bottomed microplates and incubated in 5% CO2, 95% O2 at 37° C. for 24 hours. The media in each well was removed immediately before assay.
Compounds to be tested were dissolved in DMSO at 10 mM and serially diluted into water containing 10% DMSO. Diluted compounds at a volume of 10 μL were added to wells of a 96-well V-bottomed microplate. A solution of DMEM, 1% glutamine, 1% penicillin and streptomycin, and 22 nM tritiated cortisone was prepared and 90 μL added to each well of the assay plate. This solution (100 μL/well) was transferred to the plate containing the cells. The plate was then incubated in 5% CO2, 95% O2 at 37° C. for 2 hours.
Following this incubation, 50 μL of the assay solution was transferred to each well of a 96-well scintillation microplate. A mixture consisting of anti-mouse YSi SPA beads, pre-mixed with anti-cortisol antibody in assay buffer (50 mM Tris.HCl, pH 7.0; 300 mM NaCl; 1 mM EDTA, 5% glycerol) was prepared and 50 μL added to each well of the scintillation microplate. An adhesive strip was applied to the microplate and the plate gently shaken for at least 2 hours at room temperature, and then spun briefly on a low speed centrifuge. The plate was read on a scintillation counter suitable for 96-well microplates. For the calculation of percentage inhibition, a series of wells were added to the plate that represented the assay maximum and the assay minimum: one set that contained substrate without cells (minimum) and another set that contained substrate and cells without any compound (maximum).
The calculation of median inhibitory concentration (IC50) values for the compounds was performed using GraphPad Prism® software. Dose-response curves for each compound were plotted as fractional inhibition and data fitted to the four parameter logistic equation.

Where [1] appears, read: HEK293, potency groups, read-out: IC50 for 11β-HSD1 (HEK293).
[2] abbreviates: HEK293 cells transfected with human 11β-HSD1, first value in cell, read-out: IC50 for 11β-HSD1 (HEK293).
Where [3] appears, read: HEK293 cells, value marked * in brackets, read-out: IC50 for 11β-HSD1 (HEK293), (*) average of at least two individual experiments.

Like-named read-outs stand apart in the source and are kept apart here.

What is called IC50 is the concentration that inhibits the measured activity by half. For `O=C(c1csc(-c2cn[nH]c2)c1)N1C2CCC1CC(O)(c1ncccn1)C2` (stereo not drawn) [XX-20, (3-Hydroxy-3-pyrimidin-2-yl-8-aza-bicyclo[3.2.1]oct-8-yl)-[5-(1H-pyrazol-4-yl)-thiophen-3-yl]-methanone], the IC50 by setting is: under setting [1], not above 100 nM; under setting [2], 67 nM; under setting [3], 42 nM.

Take `O=C(c1csc(-c2cn[nH]c2)c1)N1C2CCC1CC(O)(c1nccs1)C2` (stereo not drawn) [XX-29]: the IC50 is not above 100 nM under setting [1], 33 nM under setting [2] and 31 nM under setting [3].
